Counter-ions that a name gives are not always drawn.
Experiments:
[1] = target: T1, Na^+/H^+ exchanger of rabbit erythrocytes (Oryctolagus cuniculus, UniProt P23791); experiment: Inhibition of the Na+/H+ exchanger of rabbit erythrocytes (amiloride-sensitive sodium influx, flame photometry); type: cell-based; conditions: hyperosmolar salt/sucrose medium, pH 7.4, 37° C., Na^+ influx by flame photometry
T1 construct: endogenous in cells; host or cells: erythrocytes in whole blood from cholesterol-fed New Zealand White rabbits
T1 sequence (P23791 whole entry): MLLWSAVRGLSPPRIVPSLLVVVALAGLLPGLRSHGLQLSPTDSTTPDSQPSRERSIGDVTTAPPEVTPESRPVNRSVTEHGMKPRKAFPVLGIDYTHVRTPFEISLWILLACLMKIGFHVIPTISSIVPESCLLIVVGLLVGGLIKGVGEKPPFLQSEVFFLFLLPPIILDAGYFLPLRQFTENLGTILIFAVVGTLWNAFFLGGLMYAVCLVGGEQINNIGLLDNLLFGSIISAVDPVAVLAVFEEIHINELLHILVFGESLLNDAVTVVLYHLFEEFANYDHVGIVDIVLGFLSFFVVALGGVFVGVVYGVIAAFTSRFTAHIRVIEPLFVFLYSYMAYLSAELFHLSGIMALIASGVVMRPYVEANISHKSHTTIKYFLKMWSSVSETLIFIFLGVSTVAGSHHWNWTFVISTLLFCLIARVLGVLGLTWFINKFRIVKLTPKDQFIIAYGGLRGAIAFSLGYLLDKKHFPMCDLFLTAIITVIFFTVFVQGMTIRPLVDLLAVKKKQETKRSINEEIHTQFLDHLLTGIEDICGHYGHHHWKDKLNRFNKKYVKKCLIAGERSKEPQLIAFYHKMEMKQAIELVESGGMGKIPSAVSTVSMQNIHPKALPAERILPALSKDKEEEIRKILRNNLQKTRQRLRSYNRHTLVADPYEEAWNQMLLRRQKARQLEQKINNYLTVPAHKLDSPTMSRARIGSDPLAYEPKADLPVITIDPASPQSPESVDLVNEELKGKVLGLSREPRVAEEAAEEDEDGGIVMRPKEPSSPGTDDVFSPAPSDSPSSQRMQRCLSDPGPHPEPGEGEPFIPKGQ
Description: New Zealand White rabbits (Ivanovas) were given a standard diet containing 2% cholesterol for six weeks in order to activate Na^+/H^+ exchange and thus to be able to use flame photometry to determine the Na^+ influx into the erythrocytes via Na^+/H^+ exchange. The blood was removed from the aural arteries and rendered incoagulable by the addition of 25 IU of potassium heparin per ml. One part of each sample was used for the duplicate determination of the hematocrit by centrifugation. Aliquots of in each case 100 μl were employed for measuring the initial content of Na^+ in the erythrocytes.
In order to determine the amiloride-sensitive sodium influx, 100 μl of each blood sample were in each case incubated, at pH 7.4 and 37° C., in 5 ml of a hyperosmolar salt/sucrose medium (mmol/l: 140 NaCl, 3 KCl, 150 sucrose, 0.1 ouabain, 20 tris(hydroxymethyl)aminomethane). The erythrocytes were then washed three times with ice cold MgCl2/ouabain solution (mmol/l: 112 MgCl2, 0.1 ouabain) and hemolyzed in 2.0 ml of distilled water. The intracellular content of sodium was determined by flame photometry.
The nett influx of Na^+ was calculated from the difference between the initial sodium values and the sodium content of the erythrocytes following incubation. The amiloride-inhibitable sodium influx was given by the difference in the sodium content of the erythrocytes following incubation with and without 3×10^−4 mol/l amiloride. The same procedure was also used in the case of the compounds according invention.

SMILES	melting point	IC50 [1]
N=C(NC(=O)CCc1ccccc1C(F)(F)F)NC(=O)CCc1ccccc1C(F)(F)F (as salt: hydrochloride) [Example 7, N,N′-Bis[3-(2-trifluoromethylphenyl)propionyl]guanidide]	75 °C	
CC(C)c1ccc(C(=O)NC(=N)NC(=O)c2ccc(C(C)C)c(S(C)(=O)=O)c2)cc1S(C)(=O)=O [Example 1, Bis(3-methylsulfonyl-4-i-propylbenzoyl)guanidine]	218 to 221 °C	10000 nM
N=C(NC(=O)c1ccc(F)c(C(F)(F)F)c1)NC(=O)c1ccc(F)c(C(F)(F)F)c1 [Example 2, Bis(4-fluoro-3-trifluoromethylbenzoyl)guanidine]	143 to 145 °C	10000 nM
N=C(NC(=O)c1ccc(-n2ccnc2)c(C(F)(F)F)c1)NC(=O)c1ccc(-n2ccnc2)c(C(F)(F)F)c1 [Example 3, Bis[4-(l-imidazolyl)-3-trifluoromethylbenzoyl]guanidine]		5000 nM
Cl.N=C(NC(=O)c1ccc(F)c(C(F)(F)F)c1)NC(=O)c1ccc(-n2ccnc2)c(C(F)(F)F)c1 [Example 4, N-[4-(1-Imidazolyl)-3-trifluoromethylbenzoyl]-N′-(4-fluoro-3-trifluoromethylbenzoyl)guanidine Hydrochloride]	217 to 218 °C (dec.)	3000 nM
N=C(NC(=O)C1CCc2ccccc2C1)NC(=O)C1CCc2ccccc2C1 (stereo not shown) [Example 5, N,N′-Bis(1,2,3,4-tetrahydronaphthalene-2-carbonyl)guanidide]	99 °C	300 nM
C/C(=C\c1ccccc1)C(=O)NC(=N)NC(=O)/C(C)=C/c1ccccc1 [Example 6, N,N′-Bis[(E)-2-methylcinnamoyl]guanidide]		1100 nM
N=C(NC(=O)CCc1ccccc1C(F)(F)F)NC(=O)CCc1ccccc1C(F)(F)F [Example 7, N,N′-Bis[3-(2-trifluoromethylphenyl)propionyl]guanidide]		2000 nM
CC(Cc1cc(F)ccc1F)C(=O)NC(=N)NC(=O)C(C)Cc1cc(F)ccc1F (stereo not shown) [Example 8, N,N′-Bis[3-(2,5-difluorophenyl)-2-methylpropionyl]guanidide]		300 nM

Reference: patent US6436999B1, “Diacyl-substituted guanidines, a process for their preparation, their use as medicine or diagnostic aid, and medicine containing them” (Hoechst Aktiengesellschaft, priority 1993, dated 2002)
